Columns and labels:
Leishmania [1] = experiment: Antileishmanial activity against amastigotes of Leishmania infected in mouse J-774A.1 cells assessed as increase in IL-12 production at IC50 after 24 hrs by ELISA relative to control; format: functional, J774.A1
Rattus norvegicus [2] = experiment: Clearance in Sprague-Dawley rat at 10 mg/kg, po; format: ADME, organism-based; parameters: dose 10 mg/kg, route oral; conditions: in vivo
[3] = Elimination half life in Sprague-Dawley rat at 10 mg/kg, iv; format: ADME, organism-based; parameters: dose 10 mg/kg, route intravenous; conditions: in vivo, read-out: beta t1/2 (converted)
[4] = Volume of distribution at steady state in Sprague-Dawley rat at 10 mg/kg, iv; format: ADME, organism-based; parameters: dose 10 mg/kg, route intravenous; conditions: in vivo, read-out: Vdss
Leishmania [5] = experiment: Antileishmanial activity against amastigotes of Leishmania infected in mouse J-774A.1 cells assessed as increase in TNF-alpha production at IC50 after 24 hrs by ELISA relative to control; format: functional, J774.A1
Leishmania [6] = experiment: Antileishmanial activity against amastigotes of Leishmania infected in mouse J-774A.1 cells assessed as decrease in […] production at IC50 after 24 hrs by ELISA relative to control; format: functional, J774.A1
[7] = Oral bioavailability in Sprague-Dawley rat at 10 mg/kg; format: ADME, organism-based; conditions: in vivo
[8] = AUC (0 to t) in Sprague-Dawley rat at 10 mg/kg, iv; format: ADME, organism-based; parameters: dose 10 mg/kg, route intravenous; conditions: plasma
[9] = Selectivity index, ratio of CC50 for mouse J774A1 cells to IC50 for amastigotes of Leishmania donovani MHOM/IN/60/Dd8 infected in mouse J-774A.1 cells; format: functional, J774.A1
[10] = Lipophilicity, log P of the compound; format: physicochemical; conditions: octanol/water
[11] = Cytotoxicity against mouse J774A1 cells after 72 hrs by MTT assay; format: cell-based, J774.A1
[12] = Cytotoxicity against african green monkey Vero cells after 72 hrs by MTT assay; format: cell-based; conditions: chlorocebus sabaeus
[13] = Cmax in Sprague-Dawley rat at 10 mg/kg, iv; format: ADME, organism-based; parameters: dose 10 mg/kg, route intravenous; conditions: in vivo
Leishmania donovani [14] = experiment: Antileishmanial activity against promastigotes of Leishmania donovani MHOM/IN/60/Dd8 after 72 hrs by luciferase reporter gene assay; format: functional, organism-based; conditions: MHOM/IN/60/Dd8, 72 h
Leishmania donovani [15] = experiment: Antileishmanial activity against amastigotes of Leishmania donovani MHOM/IN/60/Dd8 infected in mouse J-774A.1 cells after 72 hrs by luciferase reporter gene assay; format: functional, organism-based; conditions: MHOM/IN/60/Dd8, J774.A1, 72 h
Leishmania [16] = experiment: Antileishmanial activity against amastigotes of Leishmania infected in mouse J-774A.1 cells assessed as decrease in IL-10 production at IC50 after 24 hrs by ELISA relative to control; format: functional, J774.A1
[17] = Mean residence time in Sprague-Dawley rat at 10 mg/kg, iv; format: ADME, organism-based; parameters: dose 10 mg/kg, route intravenous; conditions: in vivo
[18] = Mean residence time in Sprague-Dawley rat at 10 mg/kg, po; format: ADME, organism-based; parameters: dose 10 mg/kg, route oral; conditions: in vivo
Leishmania [19] = experiment: Antileishmanial activity against amastigotes of Leishmania infected mouse J774A1 cells assessed as induction of nitric oxide generation after 24 hrs by ELISA (reference value: 4.65 uM); format: functional, J774.A1
Leishmania donovani [20] = experiment: Antileishmanial activity against amastigotes of Leishmania donovani MHOM/IN/60/Dd8 infected in golden hamster assessed as amastigote count at 50 mg/kg/day, ip administered for 5 days measured on day 7 of post last dose by Giemsa staining; format: functional; conditions: MHOM/IN/60/Dd8, ip, route intraperitoneal
[21] = Clearance in Sprague-Dawley rat at 10 mg/kg, iv; format: ADME, organism-based; parameters: dose 10 mg/kg, route intravenous; conditions: in vivo
Albumin = Albumin (Bos taurus, UniProt P02769); experiment: Binding affinity to bovine serum albumin by fluorescence spectrophotometry; format: ADME; conditions: cattle, isolated protein
[22] = Tmax in Sprague-Dawley rat at 10 […], iv; format: ADME, organism-based; conditions: in vivo
Rattus norvegicus [23] = experiment: AUC (0 to t) in Sprague-Dawley rat at 10 mg/kg, po; format: ADME, organism-based, Plasma; parameters: dose 10 mg/kg, route oral; conditions: in vivo
Leishmania donovani [24] = experiment: Antileishmanial activity against amastigotes of Leishmania donovani MHOM/IN/60/Dd8 infected in golden hamster assessed as amastigote count at 30 mg/kg/day, po administered for 5 days measured on day 7 of post last dose by Giemsa staining; format: functional
Leishmania donovani [25] = experiment: Ratio of miltefosine IC50 to compound IC50 for amastigotes of Leishmania donovani MHOM/IN/60/Dd8 infected in mouse J-774A.1 cells; format: functional, J774.A1
Rattus norvegicus [26] = experiment: Volume of distribution at steady state in Sprague-Dawley rat at 5 mg/kg, iv; format: ADME, organism-based; parameters: dose 5 mg/kg, route intravenous; conditions: in vivo
Rattus norvegicus [27] = experiment: Elimination half life in Sprague-Dawley rat at 5 mg/kg, iv; format: ADME, organism-based; parameters: dose 5 mg/kg, route intravenous; conditions: in vivo
Rattus norvegicus [28] = experiment: Clearance in Sprague-Dawley rat at 5 mg/kg, iv; format: ADME, organism-based; parameters: dose 5 mg/kg, route intravenous; conditions: in vivo
[29] = AUC (0 to t) in Sprague-Dawley rat at 5 mg/kg, iv; format: ADME, organism-based; parameters: dose 5 mg/kg, route intravenous; conditions: plasma
Rattus norvegicus [30] = experiment: Mean residence time in Sprague-Dawley rat at 5 mg/kg, iv; format: ADME, organism-based; parameters: dose 5 mg/kg, route intravenous; conditions: in vivo
[31] = Tmax in Sprague-Dawley rat at 10 […], po; format: ADME, organism-based; conditions: in vivo
Rattus norvegicus [32] = experiment: Volume of distribution at steady state in Sprague-Dawley rat at 10 mg/kg, po; format: ADME, organism-based; parameters: dose 10 mg/kg, route oral; conditions: in vivo
[33] = Tmax in Sprague-Dawley rat at 5 mg/kg, iv; format: ADME, organism-based; parameters: dose 5 mg/kg, route intravenous; conditions: in vivo
[34] = Cmax in Sprague-Dawley rat at 10 mg/kg, po; format: ADME, organism-based; parameters: dose 10 mg/kg, route oral; conditions: in vivo
[35] = Cmax in Sprague-Dawley rat at 5 mg/kg, iv; format: ADME, organism-based; parameters: dose 5 mg/kg, route intravenous; conditions: in vivo
[36] = Elimination half life in Sprague-Dawley rat at 10 mg/kg, po; format: ADME, organism-based; parameters: dose 10 mg/kg, route oral; conditions: in vivo, read-out: beta t1/2 (converted)

Chain of Albumin (P02769 whole entry): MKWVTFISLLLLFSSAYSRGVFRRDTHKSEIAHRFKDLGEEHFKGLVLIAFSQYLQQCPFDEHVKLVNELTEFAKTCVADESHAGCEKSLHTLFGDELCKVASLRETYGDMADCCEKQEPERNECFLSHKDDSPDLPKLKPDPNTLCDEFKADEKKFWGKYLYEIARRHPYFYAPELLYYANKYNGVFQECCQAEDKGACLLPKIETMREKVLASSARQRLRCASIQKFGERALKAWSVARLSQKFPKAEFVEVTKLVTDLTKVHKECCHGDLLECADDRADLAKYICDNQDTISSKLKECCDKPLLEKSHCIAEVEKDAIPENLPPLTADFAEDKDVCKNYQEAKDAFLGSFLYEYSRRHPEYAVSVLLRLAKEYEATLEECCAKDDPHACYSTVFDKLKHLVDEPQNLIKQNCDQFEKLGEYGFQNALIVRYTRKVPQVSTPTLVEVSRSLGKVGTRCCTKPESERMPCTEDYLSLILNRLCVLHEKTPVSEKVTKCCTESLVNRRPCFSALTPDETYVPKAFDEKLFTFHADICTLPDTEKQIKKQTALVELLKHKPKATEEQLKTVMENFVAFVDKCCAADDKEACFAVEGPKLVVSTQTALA

CL (Rattus norvegicus [2]) [mL/min/kg]	bioavailability [7] [%]	logP [10]	IC50 (Leishmania donovani [14]) [µM]	IC50 (Leishmania donovani [15]) [µM]	MRT [18] [h]	KSV (Albumin) [×10⁴ L/mol]	Kq (Albumin) [×10¹² L/mol/s]	AUCt (Rattus norvegicus [23]) [ng·h/mL]	SMILES	fold change (FC) (Leishmania [1])	fold change (FC) (Leishmania [5])	fold change (FC) (Leishmania [6])	Ratio CC50/IC50 [9]	CC50 at 72 h [11] [µM]	CC50 at 72 h [12] [µM]	fold change (FC) (Leishmania [16])	Activity (Leishmania [19]) [µM]	inhibition in vivo at 50 mg/kg/day (Leishmania donovani [20]) [%]	further results
6	2.94	7.19	> 40	4.39	8.44	6	6	716	CC1(c2ccc(Nc3nc(N4CCc5ccccc5C4)nc(N4CCc5ccccc5C4)n3)cc2)NC(=O)c2ccccc2N1 (stereo unspecified)	>8	11	>3	>91.11	> 400	> 400	5	22.58	80.9	half-life [3]: 12.8 h; Vd [4]: 1.95 L/kg; AUC(0-t) [8]: 24300 ng·h/mL; Cmax [13]: 63300 ng/mL; MRT [17]: 5.88 h; clearance [21]: 5.5 mL/min/kg; Tmax [22]: 4.8 min
–	–	–	1.75	0.65	–	–	–	–	CN1CCN(c2ccc(-c3cc(-c4ccc(C5NC(=O)c6ccccc6N5)cc4)nc(N)n3)cc2)CC1 (stereo unspecified)	–	–	–	15.16	10.2	8.32	–	–	–	Ratio IC50 (Leishmania donovani [25]): 13
29.8	5.75	6.23	7.05	3.95	3.01	10	10	327	CC1(c2ccc(Nc3nc(N4CCCCC4)nc(N4CCCCC4)n3)cc2)NC(=O)c2ccccc2N1 (stereo unspecified)	6	>9	2.8	>101.26	> 400	> 400	>3	15.72	73.2	Vdss (Rattus norvegicus [26]): 5.44 L/kg; beta t1/2 (Rattus norvegicus [27]): 0.84 h; CL (Rattus norvegicus [28]): 29.5 mL/min/kg; AUC(0-t) [29]: 2840 ng·h/mL; MRT (Rattus norvegicus [30]): 3.07 h; Tmax [31]: 2 h; Vdss (Rattus norvegicus [32]): 5.39 L/kg; Tmax [33]: 4.8 min; Cmax [34]: 108 ng/mL; Cmax [35]: 1830 ng/mL; half-life [36]: 1.26 h

SMILES	CL (Rattus norvegicus [2]) [mL/min/kg]	bioavailability [7] [%]	logP [10]	IC50 (Leishmania donovani [14]) [µM]	IC50 (Leishmania donovani [15]) [µM]	MRT [18] [h]	KSV (Albumin) [×10⁴ L/mol]	Kq (Albumin) [×10¹² L/mol/s]	AUCt (Rattus norvegicus [23]) [ng·h/mL]	fold change (FC) (Leishmania [1])	fold change (FC) (Leishmania [5])	fold change (FC) (Leishmania [6])	Ratio CC50/IC50 [9]	CC50 at 72 h [11] [µM]	CC50 at 72 h [12] [µM]	fold change (FC) (Leishmania [16])	Activity (Leishmania [19]) [µM]	inhibition in vivo at 50 mg/kg/day (Leishmania donovani [20]) [%]	further results
CCCCCCCCCCCCCCCCOP(=O)([O-])OCC[N+](C)(C)C [MILTEFOSINE]	–	–	-0.21	1.05	8.4	–	–	–	–	–	–	–	1.48	12.4	–	–	–	–	inhibition in vivo at 30 mg/kg/day (Leishmania donovani [24]): 98.1%

From ChEMBL document CHEMBL2380205, “Discovery of a new class of natural product-inspired quinazolinone hybrid as potent antileishmanial agents” (J Med Chem, 2013)
